According to patent publication US10538555B2, “Macrocyclic inhibitors of the PD-1/PD-L1 and CD80(B7-1)/PD-L1 protein/protein interactions” (BRISTOL-MYERS SQUIBB COMPANY, priority 2014, dated 2020):
Read-outs that look alike come from different tables or passages of the source. *1 amine or outer side, *2 acyl side, *3 side chain or, on linkers, in order; H or OH if unused. Where a SMILES comes first, the peptide text is derived from it. Bridges are numbered along the chain shown (N, C = ends). [ ]: non-standard residue; d: D form. ξ: configuration not given here. Trp(βS-Me) = C[C@@H](c1c[nH]c2ccccc12)[C@H](N)C(=O)O; Phe(3,4,5-F3) = N[C@@H](Cc1cc(F)c(F)c(F)c1)C(=O)O; NMePhe(4-F) = CN[C@@H](Cc1ccc(F)cc1)C(=O)O; Phe(4-F) = N[C@@H](Cc1ccc(F)cc1)C(=O)O; d(cisHyp) = O=C(O)[C@H]1C[C@@H](O)CN1; Bta = N[C@@H](Cc1csc2ccccc12)C(=O)O; NMeY = CN[C@@H](Cc1ccc(O)cc1)C(=O)O; Lys(Me2) = CN(C)CCCC[C@H](N)C(=O)O; Hyp = O=C(O)[C@@H]1C[C@@H](O)CN1; NMeF = CN[C@@H](Cc1ccccc1)C(=O)O; dNMeF = CN[C@H](Cc1ccccc1)C(=O)O; dHyp = O=C(O)[C@H]1C[C@H](O)CN1; NMeL = CN[C@@H](CC(C)C)C(=O)O; NMeNle = CCCC[C@H](NC)C(=O)O; Pip = O=C(O)[C@@H]1CCCCN1; dPip = O=C(O)[C@H]1CCCCN1; hSer = N[C@@H](CCO)C(=O)O; NMeA = CN[C@@H](C)C(=O)O; Orn = NCCC[C@H](N)C(=O)O; Dab = NCC[C@H](N)C(=O)O; Dap = NC[C@H](N)C(=O)O; CO = O=C([*:1])[*:2]; ξC = NC(CS)C(=O)O

Molecular target: T1, Human PD-L1/PD-1 (Homo sapiens, UniProt Q9NZQ7)
T1 construct: TVMV protease cleavage site (C); made in house; host or cells: HEK293T cells
T1 sequence (Q9NZQ7 with tags, fused parts or gaps): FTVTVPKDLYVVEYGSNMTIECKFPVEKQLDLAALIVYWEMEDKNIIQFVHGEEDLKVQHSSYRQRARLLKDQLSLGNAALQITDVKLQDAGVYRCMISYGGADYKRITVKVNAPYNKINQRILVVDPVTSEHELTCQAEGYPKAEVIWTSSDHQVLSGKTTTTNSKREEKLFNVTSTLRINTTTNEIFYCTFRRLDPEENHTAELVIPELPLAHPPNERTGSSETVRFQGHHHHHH
Assay: HTRF Human PD-L1/PD-1 binding assay (PD-1-Ig/PD-L1-His)
Conditions: PD-L1-His 10 nM, PD-1-Ig 20 nM
Summary of the method: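 Competition of macrocyclic peptides for PD-1/PD-L1 binding measured by HTRF in dPBS containing 0.1% BSA and 0.05% Tween-20. Compound and PD-L1-His (10 nM final) incubated 15 min before PD-1-Ig (20 nM final) and a further 15 min.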

[1] = class symbol, read-out: HTRF Human PD-L1/PD-1 Binding Assay IC50 Range

| SMILES | IC50 [1] [nM] | IC50 (read-out: HTRF Human PD-L1/PD-1 Binding Assay IC50) [nM] |
| --- | --- | --- |
| CCCC[C@H]1C(=O)N2CCC[C@@H]2C(=O)N[C@@H](CC(=O)O)C(=O)N[C@@H](C(C)C)C(=O)N(C)[C@@H](Cc2ccccc2)C(=O)N[C@@H](CCC(=O)O)C(=O)N2C[C@H](O)C[C@@H]2C(=O)N[C@@H](Cc2c[nH]c3ccccc23)C(=O)N[C@@H](Cc2ccc(O)cc2)C(=O)N[C@@H](CCC(N)=O)C(=O)N[C@H](C(=O)NCC(N)=O)CSCC(=O)N[C@@H](Cc2cc(F)c(F)c(F)c2)C(=O)N(C)[C@@H](Cc2ccc(O)cc2)C(=O)N1C [Example 10631] ({CH2CO}-[Phe(3,4,5-F3)][NMeY][NMeNle][dP]DV[NMeF]E[d(cisHyp)]WYQCG-NH2; thioether N-13) | 10 to 99.9 |  |
| CCCC[C@H]1C(=O)N2C[C@H](O)C[C@@H]2C(=O)N[C@@H](CC(=O)O)C(=O)N[C@@H](C(C)C)C(=O)N(C)[C@@H](Cc2ccccc2)C(=O)N[C@@H](CCC(=O)O)C(=O)N2C[C@H](O)C[C@@H]2C(=O)N[C@@H](Cc2c[nH]c3ccccc23)C(=O)N[C@@H](Cc2ccc(O)cc2)C(=O)N[C@@H](CC(N)=O)C(=O)N[C@H](C(=O)NCC(N)=O)CSCC(=O)N[C@@H](Cc2cc(F)c(F)c(F)c2)C(=O)N(C)[C@@H](Cc2ccccc2)C(=O)N1C [Example 9338] ({CH2CO}-[Phe(3,4,5-F3)][NMeF][NMeNle][d(cisHyp)]DV[NMeF]E[d(cisHyp)]WYNCG-NH2; thioether N-13) | 1 to 9.9 |  |
| CCCC[C@H]1C(=O)N(C)[C@@H](CCCC)C(=O)N[C@@H](CCCCN(C)C)C(=O)N[C@H](C(=O)NCC(N)=O)CSCC(=O)N[C@@H](Cc2ccc(O)cc2)C(=O)N2CCCC[C@H]2C(=O)N[C@@H](CC(=O)O)C(=O)N2CCC[C@H]2C(=O)N[C@@H](CN)C(=O)N[C@@H](CCC(=O)O)C(=O)N2C[C@H](O)C[C@H]2C(=O)N[C@@H](Cc2c[nH]c3ccccc23)C(=O)N[C@@H](CO)C(=O)N[C@@H](Cc2c[nH]c3ccccc23)C(=O)N1C [Example 1306] ({CH2CO}-Y[Pip]DP[Dap]E[Hyp]WSW[NMeNle][NMeNle][Lys(Me2)]CG-NH2; thioether N-14) | 10 to 99.9 |  |
| CCCC[C@H]1C(=O)N(C)[C@@H](CCCC)C(=O)N[C@@H](CNC(=O)O)C(=O)N[C@H](C(=O)NCC(N)=O)CSCC(=O)N[C@@H](Cc2ccc(O)cc2)C(=O)N(C)[C@@H](C)C(=O)N[C@@H](CC(=O)O)C(=O)N2CCC[C@H]2C(=O)N[C@@H](CN)C(=O)N[C@@H](CCC(=O)O)C(=O)N2C[C@H](O)C[C@H]2C(=O)N[C@@H](Cc2c[nH]c3ccccc23)C(=O)N[C@@H](CCC(=O)O)C(=O)N[C@@H](Cc2c[nH]c3ccccc23)C(=O)N1C [Example 5154] ({CH2CO}-Y[NMeA]DP[Dap]E[Hyp]WEW[NMeNle][NMeNle][Dap](CO)CG-NH2; thioether N-14) | 10 to 99.9 |  |
| CCCC[C@H]1C(=O)N(C)[C@@H](CCCC)C(=O)N[C@@H](CCC(=O)O)C(=O)N[C@H](C(=O)NCC(N)=O)CSCC(=O)N[C@@H](Cc2ccc(O)cc2)C(=O)N2C[C@H](O)C[C@H]2C(=O)N[C@@H](CC(N)=O)C(=O)N2CCC[C@H]2C(=O)N[C@@H](Cc2cnc[nH]2)C(=O)N[C@@H](CCC(=O)O)C(=O)N2C[C@H](O)C[C@H]2C(=O)N[C@@H](Cc2c[nH]c3ccccc23)C(=O)N[C@@H](CO)C(=O)N[C@@H](Cc2c[nH]c3ccccc23)C(=O)N1C [Example 1283] ({CH2CO}-Y[Hyp]NPHE[Hyp]WSW[NMeNle][NMeNle]ECG-NH2; thioether N-14) | 10 to 99.9 |  |
| CCCC[C@H]1C(=O)N2C[C@H](O)C[C@@H]2C(=O)N[C@@H](CC(=O)O)C(=O)N[C@@H](C(C)C)C(=O)N(C)[C@@H](Cc2ccccc2)C(=O)N[C@@H](CC(=O)O)C(=O)N2CCC[C@@H]2C(=O)N[C@@H](Cc2c[nH]c3ccccc23)C(=O)N[C@@H](Cc2ccc(O)cc2)C(=O)N[C@@H](CCO)C(=O)N[C@H](C(=O)NCC(N)=O)CSCC(=O)N[C@@H](Cc2cc(F)c(F)c(F)c2)C(=O)N(C)[C@@H](Cc2ccccc2)C(=O)N1C [Example 10155] ({CH2CO}-[Phe(3,4,5-F3)][NMeF][NMeNle][d(cisHyp)]DV[NMeF]D[dP]WY[hSer]CG-NH2; thioether N-13) | 1 to 9.9 |  |
| CCCC[C@H]1C(=O)N(C)[C@@H](CCCC)C(=O)N[C@@H](CCCNC(=N)N)C(=O)NC(C(=O)NCC(N)=O)CSCC(=O)N[C@@H](Cc2ccc(O)cc2)C(=O)N(C)[C@@H](C)C(=O)N[C@@H](CC(N)=O)C(=O)N2CCC[C@H]2C(=O)N[C@@H](Cc2cnc[nH]2)C(=O)N[C@@H](CCO)C(=O)N2CCC[C@H]2C(=O)N[C@@H](Cc2c[nH]c3ccccc23)C(=O)N[C@@H](CO)C(=O)N[C@@H](Cc2csc3ccccc23)C(=O)N1C (stereo partly drawn) [Example 9126] ({CH2CO}-Y[NMeA]NPH[hSer]PWS[Bta][NMeNle][NMeNle]R[ξC]G-NH2; thioether N-14) | 1 to 9.9 |  |
| CCCC[C@H]1C(=O)N2C[C@@H](O)C[C@@H]2C(=O)N[C@@H](CC(=O)O)C(=O)N[C@@H](C(C)C)C(=O)N(C)[C@H](Cc2ccccc2)C(=O)N[C@@H](Cc2ccc(O)cc2)C(=O)N2CCC[C@@H]2C(=O)N[C@@H]([C@@H](C)c2c[nH]c3ccccc23)C(=O)N[C@@H](Cc2ccc(O)cc2)C(=O)N[C@@H](CC(C)C)C(=O)N[C@H](C(=O)NCC(N)=O)CSCC(=O)N[C@@H](Cc2cc(F)c(F)c(F)c2)C(=O)N(C)[C@@H](Cc2ccccc2)C(=O)N1C [Example 10640] ({CH2CO}-[Phe(3,4,5-F3)][NMeF][NMeNle][dHyp]DV[dNMeF]Y[dP][Trp(βS-Me)]YLCG-NH2; thioether N-13) | 10 to 99.9 |  |
| CCCC[C@H]1C(=O)N(C)[C@@H](CCCC)C(=O)N[C@@H](CC(C)C)C(=O)N[C@H](C(=O)NCC(N)=O)CSCC(=O)N[C@@H](Cc2ccc(O)cc2)C(=O)N(C)[C@@H](C)C(=O)N[C@@H](CC(N)=O)C(=O)N2CCC[C@H]2C(=O)N[C@@H](Cc2c[nH]cn2)C(=O)N[C@@H](CCCCNC(C)=O)C(=O)N2C[C@H](O)C[C@H]2C(=O)N[C@@H](Cc2c[nH]c3ccccc23)C(=O)N[C@@H](CCN)C(=O)N[C@@H](Cc2c[nH]c3ccccc23)C(=O)N1C [Example 5228] ({CH2CO}-Y[NMeA]NPHK(Ac)[Hyp]W[Dab]W[NMeNle][NMeNle]LCG-NH2; thioether N-14) | 1 to 9.9 |  |
| CCCC[C@H]1C(=O)N(C)[C@@H](CCCC)C(=O)N[C@@H](CCC(=O)O)C(=O)N[C@H](C(=O)NCC(N)=O)CSCC(=O)N[C@@H](Cc2ccc(OC)cc2)C(=O)N(C)[C@@H](C)C(=O)N[C@@H](CCN)C(=O)N2CCC[C@H]2C(=O)N[C@@H](CN)C(=O)N[C@@H](CCCCN)C(=O)N2C[C@H](O)C[C@H]2C(=O)N[C@@H](Cc2c[nH]c3ccccc23)C(=O)N[C@@H](CC(=O)O)C(=O)N[C@@H](Cc2c[nH]c3ccccc23)C(=O)N1C [Example 7116] ({CH2CO}-Y(Me)[NMeA][Dab]P[Dap]K[Hyp]WDW[NMeNle][NMeNle]ECG-NH2; thioether N-14) |  | 1000 |
| CCCC[C@H]1C(=O)N(C)[C@@H](CCCC)C(=O)N[C@@H](CCC(=O)O)C(=O)N[C@H](C(=O)NCC(N)=O)CSCC(=O)N[C@@H](Cc2ccc(O)cc2)C(=O)N(C)[C@@H](C)C(=O)N[C@@H](CC(=O)O)C(=O)N2CCC[C@H]2C(=O)N[C@@H](CN)C(=O)N[C@@H](CC(C)C)C(=O)N2C[C@H](O)C[C@H]2C(=O)N[C@@H](Cc2c[nH]c3ccccc23)C(=O)N[C@@H](CO)C(=O)N[C@@H](Cc2c[nH]c3ccccc23)C(=O)N1C [Example 5164] ({CH2CO}-Y[NMeA]DP[Dap]L[Hyp]WSW[NMeNle][NMeNle]ECG-NH2; thioether N-14) | 1 to 9.9 |  |
| CCCC[C@H]1C(=O)N2CCC[C@@H]2C(=O)N[C@@H](CC(=O)O)C(=O)N[C@@H](C(C)C)C(=O)N(C)[C@@H](CC(C)C)C(=O)N[C@@H](CCC(N)=O)C(=O)N2CCC[C@@H]2C(=O)N[C@@H](Cc2c[nH]c3ccccc23)C(=O)N[C@@H](Cc2ccc(O)cc2)C(=O)N[C@@H](CCCN)C(=O)N[C@H](C(=O)NCC(N)=O)CSCC(=O)N[C@@H](Cc2ccc(F)cc2)C(=O)N(C)[C@@H](Cc2ccccc2)C(=O)N1C [Example 9255] ({CH2CO}-[Phe(4-F)][NMeF][NMeNle][dP]DV[NMeL]Q[dP]WY[Orn]CG-NH2; thioether N-13) | 1000 to 10000 |  |
| CC(C)C[C@@H]1NC(=O)[C@H](Cc2ccc(O)cc2)NC(=O)[C@H](Cc2c[nH]c3ccccc23)NC(=O)[C@H]2CCCCN2C(=O)[C@H](CCC(=O)O)NC(=O)[C@H](Cc2ccccc2)N(C)C(=O)[C@H](C(C)C)NC(=O)[C@H](CC(=O)O)NC(=O)[C@H]2CCCN2C(=O)[C@H](Cc2ccc(O)cc2)N(C)C(=O)[C@H](Cc2ccc(F)cc2)N(C)C(=O)[C@H](Cc2cc(F)c(F)c(F)c2)NC(=O)CSC[C@@H](C(=O)NCC(N)=O)NC1=O [Example 10611] ({CH2CO}-[Phe(3,4,5-F3)][NMePhe(4-F)][NMeY][dP]DV[NMeF]E[dPip]WYLCG-NH2; thioether N-13) | 1 to 9.9 |  |
| CCCC[C@H]1C(=O)N2C[C@H](O)C[C@@H]2C(=O)N2C[C@H](O)C[C@H]2C(=O)N[C@@H](C(C)C)C(=O)N(C)[C@@H](Cc2ccccc2)C(=O)N[C@@H](CCC(=O)O)C(=O)N2CCCC[C@@H]2C(=O)N[C@@H](Cc2c[nH]c3ccccc23)C(=O)N[C@@H](Cc2ccc(O)cc2)C(=O)N[C@@H](CCCN)C(=O)N[C@H](C(=O)NCC(N)=O)CSCC(=O)N[C@@H](Cc2cc(F)c(F)c(F)c2)C(=O)N(C)[C@@H](Cc2ccccc2)C(=O)N1C [Example 3228] ({CH2CO}-[Phe(3,4,5-F3)][NMeF][NMeNle][d(cisHyp)][Hyp]V[NMeF]E[dPip]WY[Orn]CG-NH2; thioether N-13) | 10 to 99.9 |  |
| CCCC[C@H]1C(=O)N(C)[C@@H](CCCC)C(=O)N[C@@H](CC(=O)O)C(=O)N[C@H](C(=O)NCC(N)=O)CSCC(=O)N[C@@H](Cc2ccc(O)cc2)C(=O)N2CCCCC2C(=O)N[C@@H](CC(=O)O)C(=O)N2CCC[C@H]2C(=O)N[C@@H](Cc2c[nH]cn2)C(=O)N[C@@H](CCCN)C(=O)N2C[C@H](O)C[C@H]2C(=O)N[C@@H](Cc2c[nH]c3ccccc23)C(=O)N[C@@H](CCCN)C(=O)N[C@@H](Cc2csc3ccccc23)C(=O)N1C (stereo partly drawn) [Example 1533] | 1 to 9.9 |  |
